Data set [1] is described as follows: In-solution Stability Test 1 (clouding by eye in citrate/citric acid, glycerol·1,3-butylene glycol·ethanol, water solution). Format: physicochemical. On the set-up: key to In-solution Stability Test 1 Room Temperature (20° C.) / In-solution Stability Test 1 50° C.: A: No clouding; B: Clouded; Distinguished Clouding. The following applies: for In-solution Stability Test 1 50° C.: left standing at 50° C. for 10 days; for In-solution Stability Test 1 50° C. / In-solution Stability Test 1 Room Temperature (20° C.): 2 g sample, 16 g mixed solution, clouding state observed by eye; for In-solution Stability Test 1 Room Temperature (20° C.): left standing at room temperature (20° C.) for 1 month. The procedure: In-solution Stability Test 1
Into a 200 ml-volume Erlenmeyer flask, 2 g of a sample (APM), 0.4 g of sodium citrate dihydrate and 0.05 g of citric acid were charged. Thereto, 16 g of glycerol·1,3-butylene glycol·ethanol mixed solution (volume ratio: 3:5:8) was added and the resulting solution was stirred for 30 minutes. Thereto, 82 g of pure water was added and the resulting solution was further stirred for 2 hours. After filtering this solution through a filter, a half amount was left standing at room temperature (20° C.) for 1 month and the remaining half amount was left standing at 50° C. for 10 days.

Data set [2] is described as follows: In-solution Stability Test 2 (clouding by eye in citrate/citric acid, glycerol·1,3-butylene glycol·ethanol, water solution). Format: physicochemical. More on the design: key to In-solution Stability Test 2 Room Temperature (20° C.) / In-solution Stability Test 2 50° C.: A: No clouding; B: Clouded; Distinguished Clouding. The following applies: for In-solution Stability Test 2 50° C.: left standing at 50° C. for 10 days; for In-solution Stability Test 2 50° C. / In-solution Stability Test 2 Room Temperature (20° C.): 2 g sample, 15 g mixed solution, clouding state observed by eye; for In-solution Stability Test 2 Room Temperature (20° C.): left standing at room temperature (20° C.) for 1 month. The procedure:
In-solution Stability Test 2
Into a 200 ml-volume Erlenmeyer flask, 2 g of a sample (APM), 0.4 g of sodium citrate dihydrate and 0.05 g of citric acid were charged. Thereto, 15 g of glycerol·1,3-butylene glycol·ethanol mixed solution (volume ratio: 3:5:8) was charged and the resulting solution was stirred for 30 minutes. Thereto, 82 g of pure water was added and further stirred for 2 hours. After filtering this solution through a filter, a half amount was left standing at room temperature (20° C.) for 1 month and the remaining half amount was left standing at 50° C. for 10 days.

Setting [3] is: temperature not specified in the sentence (whole test).

Where a name gives a salt, the structure may show the parent alone.

Turning to `O=C1O[C@H]([C@@H](O)CO)C(O)=C1OP(=O)([O-])[O-].[Mg+2]` [Comparative Example 1, L-ascorbic acid 2-phosphate magnesium salt], the “clouding in in-solution stability test 1” value in data set [1] (50° C.) is “more distinguished clouding was observed”. Also, in data set [1], the “In-solution Stability Test 1 50° C.” value was “C” and the “In-solution Stability Test 1 Room Temperature (20° C.)” value is “B”. Also, in data set [1] (room temperature (20° C.)), the “clouding in in-solution stability test 1” value was “clouding was observed”. In addition, the “clouding in in-solution stability test 2” value in data set [2] (50° C.) is on record as “more distinguished clouding was observed”. In data set [2], the “In-solution Stability Test 2 50° C.” value is on record as “C” and the “In-solution Stability Test 2 Room Temperature (20° C.)” value is reported as “B”. In addition, the “clouding in in-solution stability test 2” value in data set [2] (room temperature (20° C.)) is “clouding was observed”.

`O=C1O[C@H]([C@@H](O)CO)C(O)=C1OP(=O)([O-])[O-].[Mg+2]` [Comparative Example 2, L-ascorbic acid 2-phosphate magnesium salt]: the “clouding in in-solution stability test 1” value in data set [1] (50° C.) is “more distinguished clouding was observed”. In data set [1], the “In-solution Stability Test 1 50° C.” value is “C” and the “In-solution Stability Test 1 Room Temperature (20° C.)” value is given as “B”. Further, the “clouding in in-solution stability test 1” value in data set [1] (room temperature (20° C.)) is “clouding was observed”. Moreover, in data set [2] (50° C.), the “clouding in in-solution stability test 2” value is on record as “distinguished clouding was observed”. Moreover, in data set [2], the “In-solution Stability Test 2 50° C.” value is reported as “C” and the “In-solution Stability Test 2 Room Temperature (20° C.)” value is listed as “C”. Besides, in data set [2] (room temperature (20° C.)), the “clouding in in-solution stability test 2” value was “distinguished clouding was observed”.

For `O=C1O[C@H]([C@@H](O)CO)C(O)=C1OP(=O)(O)O` [Example 1, L-ascorbic acid 2-phosphate magnesium salt], in data set [1], the “In-solution Stability Test 1 50° C.” value is on record as “A” and the “In-solution Stability Test 1 Room Temperature (20° C.)” value was “A”. Besides, the “clouding in in-solution stability test 1” value in data set [1] (setting [3]) is on record as “clouding was not observed”. Also, in data set [2], the “In-solution Stability Test 2 50° C.” value is reported as “A” and the “In-solution Stability Test 2 Room Temperature (20° C.)” value is recorded as “A”. Also, the “clouding in in-solution stability test 2” value in data set [2] (setting [3]) is “clouding was not observed”.

Source of the values: patent US20040092485A1, “Ascorbic acid 2-phosphate metal salt with low calcium content” (priority 2001, published 2004).
